Source: ChEMBL document CHEMBL2331452, “3D-QSAR studies of 1,2-diaryl-1H-benzimidazole derivatives as JNK3 inhibitors with protective effects in neuronal cells” (Bioorg Med Chem Lett, 2013)

Target: Mitogen-activated protein kinase 10 (Homo sapiens, UniProt P53779)
Assay: Binding affinity to JNK3 (unknown origin) by surface plasmon resonance analysis in presence of ATP

Chain of Mitogen-activated protein kinase 10 (P53779 whole entry): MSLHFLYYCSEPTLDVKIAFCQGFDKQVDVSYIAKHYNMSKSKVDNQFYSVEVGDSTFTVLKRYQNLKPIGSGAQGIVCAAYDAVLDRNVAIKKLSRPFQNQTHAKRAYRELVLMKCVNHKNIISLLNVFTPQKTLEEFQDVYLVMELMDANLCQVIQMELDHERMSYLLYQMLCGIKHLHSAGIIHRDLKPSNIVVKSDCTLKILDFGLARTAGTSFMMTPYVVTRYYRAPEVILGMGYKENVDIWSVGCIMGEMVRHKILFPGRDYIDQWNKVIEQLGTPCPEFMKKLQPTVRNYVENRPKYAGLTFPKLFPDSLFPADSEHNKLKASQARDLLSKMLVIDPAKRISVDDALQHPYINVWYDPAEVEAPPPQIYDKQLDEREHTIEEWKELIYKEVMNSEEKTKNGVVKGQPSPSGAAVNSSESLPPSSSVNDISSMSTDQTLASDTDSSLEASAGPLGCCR

Row | Structure (SMILES) | Kd (read-out: Kd) [µM] | Kd (read-out: pKd (converted)) [µM]
1 | Oc1ccc2c(c1)nc(-c1ccc3ccccc3c1)n2-c1ccnc(NC2CCOCC2)n1 | 1.66 | 1.66
2 | O=C(C1CC1)N1CCC[C@@H](Nc2nccc(-n3c(-c4ccc5ccccc5c4)nc4cc(O)ccc43)n2)C1 | 2.65 | 2.63
3 | c1ccc2cc(-c3nc4ccccc4n3-c3ccnc(NC4CCCCC4)c3)ccc2c1 | 5.26 | 5.25
4 | c1ccc2cc(-c3nc4ccccc4n3-c3ccnc(NC4CCOCC4)c3)ccc2c1 | 4.65 | 4.68
5 | C[C@H](O)CNc1cc(-n2c(-c3ccc4ccccc4c3)nc3ccccc32)ccn1 | 12.7 | 12.6
6 | COc1ccc2c(c1)nc(-c1ccc3ccccc3c1)n2-c1ccnc(NC2CCCCC2)c1 | 176 | 178
7 | COc1ccc2c(c1)nc(-c1ccc(Cl)c(Cl)c1)n2-c1ccnc(NC2CCCCC2)c1 | 18.1 | 18.2
8 | Oc1ccc2c(c1)nc(-c1ccc3ccccc3c1)n2-c1ccnc(N[C@@H]2CCCNC2)c1 | 6.05 | 6.03
9 | O=C(C1CC1)N1CCC[C@@H](Nc2cc(-n3c(-c4ccc5ccccc5c4)nc4cc(O)ccc43)ccn2)C1 | 27.7 | 27.5
10 | Oc1ccc2c(c1)nc(-c1ccc(Cl)c(Cl)c1)n2-c1ccnc(NC2CCCCC2)c1 | 13.8 | 13.8
11 | c1ccc2cc(-c3nc4ccccc4n3-c3ccnc(NC4CCCCC4)n3)ccc2c1 | 1.75 | 1.74
12 | COc1ccc2c(c1)nc(-c1ccc3ccccc3c1)n2-c1ccnc(NC2CCCCC2)n1 | 0.743 | 0.741
13 | COc1ccc2nc(-c3ccc4ccccc4c3)n(-c3ccnc(NC4CCCCC4)n3)c2c1 | 1.77 | 1.74
14 | Clc1ccc(-c2nc3ccccc3n2-c2ccnc(NC3CCOCC3)n2)cc1Cl | 21.8 | 21.9
15 | c1ccc2cc(-c3nc4ccccc4n3-c3ccnc(N[C@@H]4CCCNC4)n3)ccc2c1 | 2.98 | 2.95
16 | COc1ccc2nc(-c3ccc4ccccc4c3)n(-c3ccnc(N[C@@H]4CCCN(C(=O)C5CC5)C4)n3)c2c1 | 1.17 | 1.17
17 | Oc1ccc2c(c1)nc(-c1ccc3ccccc3c1)n2-c1ccnc(NC2CCCCC2)n1 | 1.89 | 1.91
18 | Oc1ccc2nc(-c3ccc4ccccc4c3)n(-c3ccnc(NC4CCCCC4)n3)c2c1 | 31.7 | 31.6

The remaining compounds from weak to strong by Kd (read-out: Kd), led by results:

Row | Kd (read-out: Kd) [µM] | Kd (read-out: pKd (converted)) [µM] | Structure (SMILES)
19 | 24.5 | 24.5 | Oc1ccc2c(c1)nc(-c1ccc3ccccc3c1)n2-c1ccnc(NC2CCCCC2)c1
20 | 19.1 | 19.1 | C[C@H](O)CNc1cc(-n2c(-c3cccc(O)c3)nc3ccccc32)ccn1
21 | 10.7 | 10.7 | O=C(C1CC1)N1CCC[C@@H](Nc2cc(-n3c(-c4ccc5ccccc5c4)nc4ccccc43)ccn2)C1
22 | 10 | 10 | Oc1ccc2c(c1)nc(-c1ccc3ccccc3c1)n2-c1ccnc(NC2CCOCC2)c1
23 | 7.69 | 7.76 | O=C(C1CC1)N1CCC[C@@H](Nc2nccc(-n3c(-c4ccc(Cl)c(Cl)c4)nc4ccccc43)n2)C1
24 | 6 | 6.03 | Oc1ccc2nc(-c3ccc4ccccc4c3)n(-c3ccnc(NC4CCOCC4)n3)c2c1
25 | 2.91 | 2.88 | COc1ccc2c(c1)nc(-c1ccc3ccccc3c1)n2-c1ccnc(N[C@@H]2CCCN(C(=O)C3CC3)C2)n1
26 | 2.64 | 2.63 | O=C(C1CC1)N1CCC[C@@H](Nc2cc(-n3c(-c4cccc(O)c4)nc4ccccc43)ccn2)C1
27 | 2.33 | 2.34 | c1ccc2cc(-c3nc4ccccc4n3-c3ccnc(NC4CCOCC4)n3)ccc2c1
28 | 1.93 | 1.95 | O=C(C1CC1)N1CCC[C@@H](Nc2nccc(-n3c(-c4ccc5ccccc5c4)nc4ccccc43)n2)C1
